# According to patent US20090306102A1, “2-PYRIDIN-2-YL-QUINAZOLINE DERIVATIVES AS POTASSIUM CHANNEL MODULATING AGENTS FOR THE TREATMENT OF RESPIRATORY DISEASES” (priority 2005, published 2009):
# What was measured:
# hSK3 channels = biological target: T1, hSK3 channels (Homo sapiens, UniProt Q9UGI6); experiment: whole-cell patch-clamp recording of ionic current through SK channels (subtype 3) in HEK293 cells expressing hSK3; type: cell-based
# T1 construct: expressed in transfected cells; host or cells: HEK293
# Experimental: The ionic current through small-conductance Ca^2+-activated K^+ channels (SK channels, subtype 3) is recorded using HEK293 tissue culture cells expressing hSK3 channels in a whole-cell configuration of the patch-clamp technique as described in e.g. WO 2006/100212.
# For activators a SC100 value may be estimated. The SC100 value is defined as the Stimulating Concentration required for increasing the baseline current by 100%. The SC100 value determined for Compound A1 of the invention was well below 0.1 μM, which is an indication of its strong SK3 activating properties.
melting point [°C],SC100 value (Stimulating Concentration required for increasing the baseline current by 100%) (hSK3 channels),Structure (SMILES)
221.4 to 224.5,,"Clc1ccc(CNc2nc(-c3nccc4ccccc34)nc3ccccc23)cc1 [Compound B11, (4-Chloro-Benzyl)-(2-Isoquinolin-1-yl-quinazolin-4-yl)-Amine]"
256.1 to 259.1,below 0.1 μM,"Cc1cccc(-c2nc(Nc3ccc(Cl)cc3)c3ccccc3n2)n1 [Compound A1, (4-Chloro-Phenyl)-[2-(6-Methyl-Pyridin-2-yl)-Quinazolin-4-yl]-Amine]"
218.4 to 220.9,,"Clc1cccc(-c2nc(NC3CCCCC3)c3ccccc3n2)n1 [Compound B4, [2-(6-Chloro-Pyridin-2-yl)-Quinazolin-4-yl]-Cyclohexyl-Amine]"
209.9 to 212.2,,"Cc1cccc(-c2nc(NCc3ccc(Cl)cc3)c3ccccc3n2)n1 [Compound B3, (4-Chloro-Benzyl)-[2-(6-Methyl-Pyridin-2-yl)-Quinazolin-4-yl]-Amine]"
253.1 to 254.9,,"Cc1cccc(-c2nc(NC3CCCCC3)c3ccccc3n2)n1 [Compound B2, Cyclohexyl-[2-(6-Methyl-Pyridin-2-yl)-Quinazolin-4-yl]-Amine]"
204 to 208,,"O=C(c1ccccc1)c1cccnc1-c1nc(NC2CCCCC2)c2ccccc2n1 [Compound B1, [2-(4-Cyclohexylamino-Quinazolin-2-yl)-Pyridin-3-yl]-Phenyl-Methanone]"
156.8 to 160,,"COc1cccc(-c2nc(Nc3ccc(Cl)cc3)c3ccccc3n2)n1 [Compound A4, (4-Chloro-Phenyl)-[2-(6-Methoxy-Pyridin-2-yl)-Quinazolin-4-yl]-Amine]"
118.3 to 121.4,,"Fc1cccc(-c2nc(Nc3ccc(Cl)cc3)c3ccccc3n2)n1 [Compound A2, (4-Chloro-Phenyl)-[2-(6-Fluoro-Pyridin-2-yl)-Quinazolin-4-yl]-Amine]"
187.4 to 189.7,,"Clc1ccc(CNc2nc(-c3cccc(Cl)n3)nc3ccccc23)cc1 [Compound B6, (4-Chloro-Benzyl)-[2-(6-chloro-Pyridin-2-yl)-Quinazolin-4-yl]-Amine]"
211.9 to 213.2,,"Clc1ccc(Nc2nc(-c3cccc(Cl)n3)nc3ccccc23)cc1 [Compound B5, (4-Chloro-Phenyl)-[2-(6-Chloro-Pyridin-2-yl)-Quinazolin-4-yl]-Amine]"
279 to 280.5,,"Clc1ccc(Nc2nc(-c3nccc4ccccc34)nc3ccccc23)cc1 [Compound B10, (4-Chloro-Phenyl)-(2-Isoquinolin-1-yl-Quinazolin-4-yl)-Amine]"
> 350,,"Oc1cccc(-c2nc(Nc3ccc(Cl)cc3)c3ccccc3n2)n1 [Compound A5, 6-[4-(4-Chloro-Phenylamino)-Quinazolin-2-yl]-Pyridin-2-ol]"
242.4 to 247.9,,"Clc1ccc(Nc2nc(-c3cccc(Br)n3)nc3ccccc23)cc1 [Compound A3, [2-(6-Bromo-Pyridin-2-yl)-Quinazolin-4-yl]-(4-Chloro-Phenyl)-Amine]"
274.8 to 276.9,,"c1ccc2c(-c3nc(NC4CCCCC4)c4ccccc4n3)nccc2c1 [Compound B9, Cyclohexyl-(2-Isoquinolin-1-yl-Quinazolin-4-yl)-Amine]"
